# Laboratory results reported in ChEMBL document CHEMBL1201862, “PubChem BioAssay data set” (2004).
# The source made the active and inactive calls.
# What was measured:
# Cytochrome P450 2C9 = Cytochrome P450 2C9 (Homo sapiens, UniProt P11712)
# Cytochrome P450 2C19 = Cytochrome P450 2C19 (Homo sapiens, UniProt P33261); assay: Cytochrome panel assay with activity outcomes. Panel member name: p450-cyp2c19 Compounds with AC50 equal or less than 10 uM are considered active; assay type: functional
# Streptokinase A = molecular target: T1, Streptokinase A (Streptococcus pyogenes serotype M1, UniProt P10520); assay: S. pyogenes streptokinase expression inhibitors, potency, dose response, plasminogen activation absorbance, OD405 (AID 1914); assay type: functional, Streptococcus pyogenes M1 GAS;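 also: secreted streptokinase activity via plasminogen activation per viability signal from cell pellet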
# T1 sequence (P10520 whole entry): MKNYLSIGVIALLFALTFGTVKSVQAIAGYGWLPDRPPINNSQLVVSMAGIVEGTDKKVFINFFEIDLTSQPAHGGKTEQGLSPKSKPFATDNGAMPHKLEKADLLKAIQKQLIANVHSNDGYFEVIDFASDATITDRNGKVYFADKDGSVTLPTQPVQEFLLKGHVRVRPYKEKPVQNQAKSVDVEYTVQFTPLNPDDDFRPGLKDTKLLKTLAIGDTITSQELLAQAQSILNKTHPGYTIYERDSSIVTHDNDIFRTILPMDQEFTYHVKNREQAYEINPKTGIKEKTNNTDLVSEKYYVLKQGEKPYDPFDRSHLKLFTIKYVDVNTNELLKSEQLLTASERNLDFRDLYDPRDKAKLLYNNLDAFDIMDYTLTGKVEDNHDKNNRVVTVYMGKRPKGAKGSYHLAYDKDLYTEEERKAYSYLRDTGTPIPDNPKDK
# Streptococcus = assay: Group A Streptococcus viability loss, dose response, counter-screen for streptokinase expression inhibitor project, luminescence, BacTiterGlo (AID 1915); assay type: functional, organism-based;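 also: potency for reduction of bacterial viability or growth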
# [1] = Luminescence Cell-Based Dose Retest to Confirm Inhibitors of Cancer Stem Cells. [Related pubchem assays (depositor defined):AID2717, AID2721]; assay type: functional; settings: Homo sapiens
# Cytochrome P450 1A2 = molecular target: T2, Cytochrome P450 1A2 (Homo sapiens, UniProt P05177);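 also: PubChem cytochrome P450 panel assay, CYP1A2 panel member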
# T2 sequence (P05177 whole entry): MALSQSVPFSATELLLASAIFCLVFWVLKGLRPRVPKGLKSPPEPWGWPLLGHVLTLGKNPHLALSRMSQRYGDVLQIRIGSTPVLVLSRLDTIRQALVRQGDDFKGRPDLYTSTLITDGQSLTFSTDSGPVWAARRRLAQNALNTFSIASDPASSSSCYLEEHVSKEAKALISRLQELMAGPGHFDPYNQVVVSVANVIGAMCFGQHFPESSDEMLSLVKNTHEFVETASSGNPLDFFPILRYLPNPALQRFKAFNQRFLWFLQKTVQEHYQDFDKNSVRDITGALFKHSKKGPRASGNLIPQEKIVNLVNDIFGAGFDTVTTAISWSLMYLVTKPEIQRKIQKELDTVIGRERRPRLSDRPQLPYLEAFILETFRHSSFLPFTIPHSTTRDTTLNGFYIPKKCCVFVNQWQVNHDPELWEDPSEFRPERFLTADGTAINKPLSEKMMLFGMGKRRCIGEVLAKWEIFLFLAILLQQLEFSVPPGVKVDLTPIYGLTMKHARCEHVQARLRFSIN
# [2] = test system: Streptococcus sp. 'group A'; assay: growth inhibition of control SK(-) GAS strain, dose response, counter-screen for streptokinase expression inhibitor project, luminescence, kanamycin, BacTiterGlo, confirmation (AID 1900); assay type: functional, organism-based
# Cytochrome P450 3A4 = Cytochrome P450 3A4 (Homo sapiens, UniProt P08684);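 also: CYP3A4 tested as one member of a cytochrome P450 panel screen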
# Cytochrome P450 3A4, sequence (P08684 whole entry): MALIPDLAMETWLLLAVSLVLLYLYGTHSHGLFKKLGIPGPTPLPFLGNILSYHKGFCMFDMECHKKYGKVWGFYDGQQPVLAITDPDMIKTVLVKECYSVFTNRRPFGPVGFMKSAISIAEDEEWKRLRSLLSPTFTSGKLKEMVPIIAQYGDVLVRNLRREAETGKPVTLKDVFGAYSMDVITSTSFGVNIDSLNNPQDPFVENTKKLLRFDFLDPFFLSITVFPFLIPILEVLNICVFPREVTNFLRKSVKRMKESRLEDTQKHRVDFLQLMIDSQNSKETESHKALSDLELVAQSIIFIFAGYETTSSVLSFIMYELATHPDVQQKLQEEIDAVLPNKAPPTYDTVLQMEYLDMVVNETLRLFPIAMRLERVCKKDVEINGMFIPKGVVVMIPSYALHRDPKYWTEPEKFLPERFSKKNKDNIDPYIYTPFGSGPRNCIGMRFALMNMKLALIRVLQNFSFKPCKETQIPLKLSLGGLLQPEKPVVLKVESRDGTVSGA
# [3] = cytotoxicity toward NIH3T3 fibroblasts, dose response, counter-screen, cell-based, ATP luminescence, mouse fibroblasts (AID 2010); assay type: functional;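 also: cells exposed to compound for about 90 hours before reading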
# [4] = inhibitors of intracellular T. cruzi replication, confirmation, NIH3T3 host cells, beta-gal luminescence (AID 2044); assay type: functional, cell-based;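 also: intracellular parasites grown in NIH/3T3 mouse fibroblasts as host cells; luminescent beta-galactosidase reporter signal from transgenic T. cruzi replicating inside host cells; inhibitors lower the luminescence signal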
# Cytochrome P450 2C19, sequence (P33261 whole entry): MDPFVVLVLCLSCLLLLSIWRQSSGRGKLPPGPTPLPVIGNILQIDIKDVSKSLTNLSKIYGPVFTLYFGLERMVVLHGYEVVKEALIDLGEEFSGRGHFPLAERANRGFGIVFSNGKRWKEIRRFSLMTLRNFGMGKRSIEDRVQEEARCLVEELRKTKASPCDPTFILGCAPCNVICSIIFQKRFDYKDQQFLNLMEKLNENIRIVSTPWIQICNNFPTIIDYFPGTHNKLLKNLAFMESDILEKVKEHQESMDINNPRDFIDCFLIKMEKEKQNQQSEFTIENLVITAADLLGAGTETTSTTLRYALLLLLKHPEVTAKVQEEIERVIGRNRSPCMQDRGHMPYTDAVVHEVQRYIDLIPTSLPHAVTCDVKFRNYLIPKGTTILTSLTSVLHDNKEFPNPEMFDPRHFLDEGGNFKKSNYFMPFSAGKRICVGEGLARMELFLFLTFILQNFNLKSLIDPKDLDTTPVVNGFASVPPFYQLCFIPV
# Cytochrome P450 2C9, sequence (P11712 whole entry): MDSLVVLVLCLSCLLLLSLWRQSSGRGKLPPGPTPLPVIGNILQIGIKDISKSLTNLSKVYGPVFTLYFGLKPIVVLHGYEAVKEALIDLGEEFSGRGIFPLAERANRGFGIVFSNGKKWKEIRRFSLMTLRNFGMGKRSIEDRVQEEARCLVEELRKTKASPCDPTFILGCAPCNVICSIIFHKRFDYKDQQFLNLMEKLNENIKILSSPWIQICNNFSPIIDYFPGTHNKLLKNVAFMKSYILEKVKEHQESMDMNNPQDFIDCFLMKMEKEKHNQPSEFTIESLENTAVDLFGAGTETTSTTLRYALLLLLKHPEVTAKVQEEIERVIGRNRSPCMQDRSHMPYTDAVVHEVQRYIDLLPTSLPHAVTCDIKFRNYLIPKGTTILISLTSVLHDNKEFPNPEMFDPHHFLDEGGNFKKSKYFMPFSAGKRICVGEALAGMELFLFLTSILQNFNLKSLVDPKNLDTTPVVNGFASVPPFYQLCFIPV
smiles,measurement,setting,value
CCOC(=O)Nc1ccc(C)cc1NC(=O)OCC,AC50,Cytochrome P450 2C9,25.1 µM (inconclusive)
same,AC50,Cytochrome P450 2C19; read-out: AC50,14.1 µM (inconclusive)
O=C(O)CCSc1ccc([N+](=O)[O-])cc1[N+](=O)[O-],EC50,Streptokinase A,> 150 µM (not active)
same,EC50,Streptococcus,> 150 µM (not active)
C[C@@H](CSc1ccc(Br)cc1)CN1CC[C@H](NC(=O)OCc2ccccc2)CCC1=O,AC50,[1],5.92 µM (active)
COc1cc(OC)cc(C(=O)NCCNc2nc3cc(C)cc(C)c3cc2C#N)c1,AC50,[1],> 195 µM (inactive)
O=C(/C=C/c1ccc(Br)cc1)NC1CCCCCC1,AC50,Cytochrome P450 1A2,2 µM (inconclusive)
COCC(=O)N1CCC2(CC1)CN(Cc1ccccc1OC)C2,AC50,Cytochrome P450 2C19; read-out: AC50,39.8 µM (inconclusive)
N[C@@H](Cn1cc(F)c(=O)[nH]c1=O)C(=O)O,AC50,Cytochrome P450 1A2,31.6 µM (inconclusive)
CC1CCN(c2ccccc2NC(=O)c2ccc(Br)o2)CC1,EC50,Streptokinase A,43.6 µM (active)
same,EC50,[2],5.4 µM (active)
same,EC50,Streptococcus,10.3 µM (active)
N=C1/C(=C\c2ccc(OC(=O)c3ccccc3Cl)cc2)C(=O)N=C2SC(N3CCOCC3)=NN12,EC50,Streptokinase A,> 150 µM (not active)
same,EC50,[2],37.8 µM (active)
same,EC50,Streptococcus,> 150 µM (not active)
COc1ccc(-c2sc3cc4c(cc3c2-c2ccc(OCCN3CCOCC3)cc2)OCO4)cc1,AC50,[1],0.29 µM (active)
O=C(c1csnn1)N1CCC2(CCCN(Cc3cc(C(F)(F)F)cc(C(F)(F)F)c3)C2)CC1,AC50,Cytochrome P450 2C9,39.8 µM (inconclusive)
same,AC50,Cytochrome P450 1A2,12.6 µM (inconclusive)
COC(=O)[C@@]1(Cc2ccc(OC)cc2)[C@H]2c3cc(C(=O)N4CCCC4)n(CCCNc4ncc(C(F)(F)F)cc4Cl)c3C[C@H]2CN1C(=O)c1ccccc1,AC50,Cytochrome P450 3A4,1.26 µM (inconclusive)
same,AC50,Cytochrome P450 1A2,31.6 µM (inconclusive)
CC(C)CN=C(S)NC1CC2CCCC(C1)N2Cc1ccco1 (centres undefined),AC50,Cytochrome P450 2C19; read-out: AC50,39.8 µM (inconclusive)
COc1ccc(C(=O)C2=C(O)C(=O)N(c3cc(C)on3)C2c2ccc(OC)c(OC)c2)cc1OC (centres undefined),AC50,Cytochrome P450 3A4,22.4 µM (inconclusive)
Cn1cc(-c2nc3cncnc3n(Cc3ccccc3Cl)c2=O)c2ccccc21,AC50,Cytochrome P450 3A4,7.94 µM (inconclusive)
same,AC50,Cytochrome P450 1A2,3.16 µM (inconclusive)
CC1CNC(=Nc2cccc3ccccc23)S1 (centres undefined),AC50,Cytochrome P450 2C9,14.1 µM (inconclusive)
same,AC50,Cytochrome P450 3A4,15.8 µM (inconclusive)
CN1CCc2cc(Cl)c(O)cc2[C@@H](c2ccccc2)C1 [SCH-23390],AC50,Cytochrome P450 1A2,39.8 µM (inconclusive)
CCN(CC)c1cc(C)c2cc(NC(=O)CNC(C)=O)ccc2n1,AC50,Cytochrome P450 2C9,0.891 µM (inconclusive)
same,AC50,Cytochrome P450 2C19,inconclusive
COc1ccc(CCNC(=O)COC(=O)c2cnc(C)cn2)cc1,AC50,Cytochrome P450 2C9,0.00562 µM (inconclusive)
same,AC50,Cytochrome P450 3A4,22.4 µM (inconclusive)
same,AC50,Cytochrome P450 1A2,25.1 µM (inconclusive)
Cc1cc(C(C)(C)C)c(OC(=O)[C@@H]2OC(c3ccccc3)=C[C@H]2c2ccccc2)c(C(C)(C)C)c1,AC50,[1],5.03 µM (active)
COc1cccc(-c2coc3cc4oc(=O)c(CCC(=O)O)c(C)c4cc23)c1,EC50,Streptokinase A,> 150 µM (not active)
same,EC50,[2],5.51 µM (active)
same,EC50,Streptococcus,48.5 µM (active)
CCNS(=O)(=O)c1ccc(NS(C)(=O)=O)cc1,AC50,Cytochrome P450 2C9,7.94 µM (inconclusive)
same,AC50,Cytochrome P450 2C19,inconclusive
O=C(Nc1ccc(-c2csc(-c3ccccc3)n2)cc1)c1ccccc1Cl,EC50,[3],9.89 µM (active)
same,AC50,Cytochrome P450 1A2,0.0708 µM (inconclusive)
same,EC50,[4],1.57 µM (active)
C/C(=N/NC(=O)c1ccc(-c2ccccc2)cc1)c1cc(O)cc(O)c1,AC50,[1],2.97 µM (active)
CC(C)CN(C)c1nc(N)c(C(=O)N=C(N)N)nc1Cl [5-(N-METHYL-N-ISOBUTYL)AMILORIDE],AC50,Cytochrome P450 2C19; read-out: AC50,31.6 µM (inconclusive)
Cc1cc(NC(=O)CSc2nc3ccsc3c(=O)n2Cc2ccccn2)[nH]n1,AC50,Cytochrome P450 1A2,6.31 µM (inconclusive)
Cc1nn(C(C)C(=O)N2CCc3ccccc32)c(C)c1[N+](=O)[O-] (centres undefined),AC50,Cytochrome P450 3A4,17.8 µM (inconclusive)
COc1ccc(N=C(S)Nc2ncccc2C)c(OC)c1,AC50,Cytochrome P450 2C9,20 µM (inconclusive)
same,AC50,Cytochrome P450 3A4,39.8 µM (inconclusive)
CCOC(=O)N1CCC(NC(=O)C2CCN(S(=O)(=O)N3CCCC3)CC2)CC1,AC50,Cytochrome P450 2C19,inconclusive
S=c1[nH]cnc2scc(-c3ccc(Cl)cc3)c12,EC50,Streptokinase A,> 150 µM (not active)
O=C(c1cnn2c1NC(c1ccc(Br)cc1)CC2C(F)(F)F)N1CCN2CCCC2C1 (centres undefined),AC50,[1],1.81 µM (active)
O=C(CCOc1ccccc1)Nc1ccccc1,AC50,Cytochrome P450 2C9,1 µM (inconclusive)
same,AC50,Cytochrome P450 3A4,22.4 µM (inconclusive)
O=C(Nc1cccc(Cl)c1N1CCCC1)c1cc2ccccc2o1,EC50,Streptokinase A,14.3 µM (active)
same,EC50,[2],8.81 µM (active)
same,EC50,Streptococcus,20.5 µM (active)
O=[N+]([O-])c1ccccc1-c1ccc(C(=S)N2CCN(c3ccccc3)CC2)o1,AC50,[1],> 195 µM (inactive)
O=C(Nc1ncc(Cc2cccc([N+](=O)[O-])c2)s1)c1ccco1,AC50,[1],1.4 µM (active)
COC(=O)[C@@]1(Cc2ccccc2)[C@H]2c3cc(C(=O)N4CCCC4)n(Cc4nc5ccccc5[nH]4)c3C[C@H]2CN1C(=O)c1ccccc1,AC50,Cytochrome P450 1A2,12.6 µM (inconclusive)
O=C1[C@H]2[C@H]3[C@H](O)[C@H](O)C/C(=N/OCc4ccccc4)[C@H]3CC[C@@H]2C(=O)N1Cc1ccc2c(c1)OCO2,AC50,Cytochrome P450 2C19; read-out: AC50,2 µM (inconclusive)
COc1ccc(-c2sc3cc(OC)c(OC)cc3c2C#CC2(O)CCCCC2)cc1,AC50,[1],1.73 µM (active)
Cc1ccc2c(c1)/C(=C1\SC(N(C)c3ccc(O)cc3)=NC1=O)C(=O)N2,EC50,Streptokinase A,> 150 µM (not active)
same,EC50,[2],6.59 µM (active)
same,EC50,Streptococcus,16.6 µM (active)
CCCS(=O)(=O)N1CCCC(C(=O)N2CCOCC2)C1 (centres undefined),AC50,Cytochrome P450 1A2,5.01 µM (inconclusive)
CCOc1ccc(NC(=O)N2CCC(C(N)=O)(N3CCCCC3)CC2)cc1,AC50,Cytochrome P450 2C19; read-out: AC50,8.91 µM (inconclusive)
COc1cc(OC)cc(-c2sc3ccc(OC)cc3c2C#CCO)c1,AC50,[1],4.83 µM (active)
CCC(COC(=O)NC)NC(=O)Oc1ccccc1 (centres undefined),AC50,Cytochrome P450 1A2,39.8 µM (inconclusive)
C=CCn1c(SCc2ccccc2)nc2scc(-c3ccc(C)o3)c2c1=O,AC50,Cytochrome P450 1A2,1.58 µM (inconclusive)
O=C(O)CCCN1C(=O)/C(=C/c2cn(-c3ccccc3)nc2-c2cccs2)SC1=S,EC50,Streptokinase A,> 150 µM (not active)
same,EC50,[2],5.9 µM (active)
same,EC50,Streptococcus,7.28 µM (active)
COc1ccccc1C(=O)NNC(=O)C(=O)Nc1cccc(Cl)c1C,EC50,Streptokinase A,> 150 µM (not active)
same,EC50,[2],3.78 µM (active)
same,EC50,Streptococcus,16 µM (active)
C/C(=N\NS(=O)(=O)c1ccc(C)cc1)c1ccc(C)o1,EC50,Streptokinase A,> 150 µM (not active)
same,EC50,[2],> 150 µM (not active)
same,EC50,Streptococcus,> 150 µM (not active)
CC(=O)NCCNc1ncnc2ccc(-c3ccccc3Cl)cc12,AC50,Cytochrome P450 2C19; read-out: AC50,20 µM (inconclusive)
O=C(Nc1ccc(Cl)cc1C(=O)c1ccccc1Cl)c1ccco1,AC50,Cytochrome P450 1A2,2.51 µM (inconclusive)
